Results from PMC3351436, “Direct and Allosteric Inhibition of the FGF2/HSPGs/FGFR1 Ternary Complex Formation by an Antiangiogenic, Thrombospondin-1-Mimic Small Molecule” (PLoS ONE, 2012).

Key:
[1] = molecular target: T1, FGFR1 on A745 CHO flg-1A cells (Homo sapiens, UniProt P09038); experiment: Binding of Eu-FGF2 to FGFR1-transfected A745 CHO flg-1A cells (HSPG-deficient); format: cell-based, murine
T1 construct: expressed in transfected cells; host or cells: A745 CHO (HSPG-deficient), clone flg-1A
T1 sequence (P09038 134-288): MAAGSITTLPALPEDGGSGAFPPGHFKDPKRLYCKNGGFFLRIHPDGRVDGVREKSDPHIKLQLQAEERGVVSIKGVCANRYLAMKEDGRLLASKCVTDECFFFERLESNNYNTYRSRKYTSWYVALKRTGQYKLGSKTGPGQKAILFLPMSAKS
Description: (§1) It was possible to discriminate between FGF2 bound to HSPGs low affinity receptors and FGF2 bound to the high affinity FGFR1, following a previously reported procedure.
(§2) Binding to low and high affinity receptors was analyzed according to [31].
Cell cultures. Wild-type CHO-K1 cells and the derived HSPG-deficient A745 CHO cell mutants, kindly provided by J. D. Esko (La Jolla, CA), were grown in Ham's F-12 medium supplemented with 10% fetal calf serum (FCS). […] Bovine aortic endothelial cells (BAEC) [30]were cultured in DMEM supplemented with 10% FCS.
(§3) Binding of FGF2 to cells. Europium-labeled FGF2 (Eu-FGF2) was prepared as previously described. Endothelial cells (BAEC), naturally expressing both HSPGs and FGFR1, CHO-K1 and FGFR1-expressing A745 CHO cells were used. Subconfluent cell cultures in 96-well plates were washed and incubated for 30 min at 277K in serum-free DMEM with 0.15% gelatin and 25mM HEPES (DMEM-gelatin). […] The plate was incubated for 2 h at 277K. Wells were washed with cold DMEM-gelatin to remove unbound FGF2, and the amount of total bound FGF2 was detected by adding DELFIA^? Enhancement Solution (100 µl, PerkinElmer), and measuring time resolved fluorescence using a Victor^3 multilabel plate reader (PerkinElmer), as described.

FGF2/FGFR1/HSPGs complex = molecular target: T2, FGF2/FGFR1/HSPGs complex (Homo sapiens, UniProt P09038); experiment: FGF2-mediated cell-cell adhesion assay (A745 CHO flg-1A cells on CHO-K1 monolayer); format: cell-based; conditions: FGF2 1.66 nM, 2 h incubation, serum-free medium; read-out: ID50, inhibition of FGF2-mediated cell-cell adhesion
T2 construct: expressed in transfected cells; host or cells: A745 CHO flg-1A cells on fixed CHO-K1 monolayer
T2 sequence (P09038 134-288, one chain of several): as the sequence (P09038 134-288) above
Description: (§4) Each point is the mean ± SEM of 3 separate experiments. […] C) Binding of Eu-FGF2 to endothelial cells (BAEC). […] After 2 h of incubation at 298K, the cells bound to the monolayer were counted under an inverted microscope. Each point is the mean ± SEM of 3 separate experiments performed in triplicate. In B and C, black and white arrows indicate the inhibitions obtained with heparin (0.1 µg/ml) and unlabeled FGF2 (1.5 µg/ml) used as reference competitor of HSPGs and FGFR1 binding, respectively
To exert its pro-angiogenic activity, FGF2 needs to set up a productive, ternary complex with HSPGs and FGFR1 [32].
Data are mean bound cells in three random microscopic fields.
FGF2-mediated cell-cell adhesion assay: This assay was performed as described previously, with minor modifications. Briefly, monolayers of wild-type CHO-K1 cells were washed with PBS and fixed with 3% glutaraldehyde in PBS for 2 h at 277K followed by washing with 0.1 M glycine, and PBS. […] After 2 h of incubation at 310K, unattached cells were removed by PBS washing and A745 CHO flg-1A cells bound to the CHO-K1 monolayer were counted under an inverted microscope at ×125 magnification. Data are expressed as the mean of the cell counts of three microscopic fields chosen at random. All experiments were performed in triplicate and repeated twice.

endothelial cells [2] = system: endothelial cells; design: method as in PMID 20056600; conditions: cited from earlier work
[3] = system: chicken chorioallantoic membrane; design: method as in PMID 20056600; conditions: chicken chorioallantoic membrane assay; cited from earlier work
[4] = molecular target: T3, high affinity FGFR1 on BAEC (Homo sapiens, UniProt P09038); experiment: Binding of Eu-FGF2 to endothelial cells (BAEC), high affinity receptors; format: cell-based, bovine; conditions: Eu-FGF2 10 ng/ml, after 2 M NaCl wash
T3 construct: endogenous in cells; host or cells: BAEC
T3 sequence (P09038 134-288): as above
Description: as §1, §2, §3

HSPGs on CHO-K1 cells = molecular target: T4, HSPGs on CHO-K1 cells (Homo sapiens, UniProt P09038); experiment: Binding of Eu-FGF2 to wild-type CHO-K1 cells (expressing HSPGs but not FGFR1); format: cell-based
T4 construct: endogenous in cells; host or cells: CHO-K1
T4 sequence (P09038 134-288): as above
Description: as §1, §2, §3

[5] = molecular target: T5, HSPGs low affinity receptors on BAEC (Homo sapiens, UniProt P09038); experiment: Binding of Eu-FGF2 to endothelial cells (BAEC), low affinity receptors; format: cell-based, bovine; conditions: Eu-FGF2 10 ng/ml
T5 construct: endogenous in cells; host or cells: BAEC
T5 sequence (P09038 134-288): as above
Description: as §1, §2, §3

FGF2 = molecular target: T6, FGF2 (Homo sapiens, UniProt P09038, A136E/C211S/C229S/S138E); experiment: NMR 15N-1H HSQC titration of sm27 into FGF2; format: binding; conditions: 0:1 to 4:1 sm27:FGF2, pH 5.5, 298 K
T6 construct: purchased ASLA (Riga, Latvia)
T6 sequence (P09038 134-288 A136E/S138E/C211S/C229S): as the sequence (P09038 134-288) above, with A3E, S5E, C78S, C96S counted along it
Description: All NMR data were collected on a Bruker DMX 500 MHz spectrometer at 298 K.
NMR samples contained 0.57 mM ^15N-labeled FGF2, dissolved in a buffer containing 50 mM potassium phosphate, 2 mM NaN3, and 10 mM deuterated DTT in 90% H2O/10% D2O, pH 5.5. […] At molar ratios higher than 1:1, partial sample precipitation was observed, till full sample precipitation at nominal 4:1 ratio. […] Due to the precipitation it was not possible to reach the plateau of the titration and to estimate the real stoichiometric ratio at each step.

FGF2/FGFR1 interaction = molecular target: T7, FGF2/FGFR1 interaction (Homo sapiens, UniProt P09038); experiment: SPR competition: FGF2 binding to substrate-immobilized FGFR1; conditions: FGF2 150 nM injected over immobilized FGFR1, read-out: ID50, prevention of FGF2/FGFR1 interaction
T7 construct: purchased ReliaTech
T7 sequence (P09038 134-288): as the sequence (P09038 134-288) above
Description: as §4
SPR measurements were performed on a BIAcore X instrument (GE-Healthcare, WI). Heparin was immobilized onto the SPR chip as described, allowing the immobilization of 80 resonance units (RU) (6.0 fmol/mm^2). Immobilization of FGFR (13,800 RU, 42.0 fmol/mm^2), is described in the Supporting Information S1. Sensorchips coated with streptavidin or FGF-unrelated noggin protein were used for blank subtraction (respectively for heparin and FGFR-1).
Surface plasmon resonance (SPR) analysis. SPR measurements were performed on a BIAcore X instrument (GE-Healthcare, WI). Heparin was immobilized onto the SPR chip as already described. Briefly, a CMD50L sensorchip (Xantec Bioanalytics, Dusseldorf, Germany) activated with 50 µl of a mixture containing 0.2 M EDC and 0.5 M NHS was coated with streptavidin. […]

endothelial cells [6] = system: endothelial cells; design: method as in PMID 20056600; conditions: cited from earlier work; remark: listed apart in the source
FGF2/heparin interaction = molecular target: T8, FGF2/heparin interaction (Homo sapiens, UniProt P09038); experiment: SPR competition: FGF2 binding to surface-immobilized heparin; conditions: FGF2 150 nM injected over immobilized heparin, read-out: IC50, prevention of FGF2/heparin interaction
T8 construct: made in house
T8 sequence (P09038 134-288): as above
Description: SPR measurements were performed on a BIAcore X instrument (GE-Healthcare, WI). Heparin was immobilized onto the SPR chip as described [30], allowing the immobilization of 80 resonance units (RU) (6.0 fmol/mm^2).
Surface plasmon resonance (SPR) analysis. SPR measurements were performed on a BIAcore X instrument (GE-Healthcare, WI). Heparin was immobilized onto the SPR chip as already described [27]. Briefly, a CMD50L sensorchip (Xantec Bioanalytics, Dusseldorf, Germany) activated with 50 µl of a mixture containing 0.2 M EDC and 0.5 M NHS was coated with streptavidin. Heparin was biotinylated at its reducing end and immobilized onto the streptavidin-coated sensorchip, allowing the immobilization of 80 resonance units (RU) (6.0 fmol/mm^2 of heparin). A streptavidin-coated sensorchip was used as reference and for blank subtraction. […] After every run, the sensorchip was regenerated by injection of HBS containing 2.0 M NaCl.

O=C(Nc1ccc2cc(S(=O)(=O)O)cc(O)c2c1)Nc1ccc2cc(S(=O)(=O)O)cc(O)c2c1 [sm27, 4-hydroxy-6-((((8-hydroxy-6-sulfo-2-naphthyl)amino)carbonyl)amino)-2-naphthalenesulfonic acid]
Effect on Eu-FGF2 binding to FGFR1 ([1]; A745 CHO flg-1A cells, Eu-FGF2 10 ng/ml): inhibited | IC50 (FGF2/FGFR1/HSPGs complex): 1 µM | Effect on binding of FGF2 to endothelial cells (endothelial cells [2]): prevented | Effect on FGF2-induced angiogenesis [3]: inhibited | Effect on FGF2 binding to high affinity FGFR1 [4]: inhibited | Effect on Eu-FGF2 binding to HSPGs (HSPGs on CHO-K1 cells; Eu-FGF2 10 ng/ml): inhibited | Effect on FGF2 binding to HSPGs low affinity receptors [5]: inhibited | Binding to FGF2 judged from the NMR titration (exchange regime) (FGF2): weak binding | IC50 (FGF2/FGFR1 interaction): 4 µM | Effect on FGF2-induced endothelial cell proliferation (endothelial cells [6]): inhibited | IC50 (FGF2/heparin interaction): 3.5 µM

heparin [reference compound]
Effect of reference competitor on Eu-FGF2 binding to HSPGs (HSPGs on CHO-K1 cells; heparin 0.1 µg/ml): inhibitory activity

unlabelled FGF2: Human recombinant FGF2, unlabeled, reference competitor of FGFR1 binding [reference compound]
Effect of reference competitor on Eu-FGF2 binding to FGFR1 ([1]; FGFR1-CHO cells, unlabeled FGF2 1.5 µg/ml): inhibitory activity
